Like-named read-outs stand apart in the source and are kept apart here.
Assays:
[1] = Pharmacokinetic evaluation in rats (intravenous and oral); type: in vivo, male SD rats
Method: For agents for intravenous administration, 30% (v/v) PEG400 in purified water was as a vehicle. An appropriate amount of compound was accurately weighed into a glass flask, 30 vol % of PEG400 of the container volume was slowly added to the container with stirring, and then the remaining 70 vol % of pure water was added to make up to the final volume and stirred continuously until a clear solution was obtained. The solution was filtered through a […] filter membrane, and stored at room temperature for later use. The agents for intravenous administration were formulated on the day of administration, and injected into male SD rats via tail vein (fasted overnight before administration) at a dose of 0.5 mg/kg. Approximately 0.18 mL of blood was collected from the jugular vein or tail vein at 0.0833, 0.25, 0.5, 1.0, 2.0, 4.0, 8.0 and 24 hrs after intravenous administration. The corresponding test compound in the vehicle was administered by gavage to male SD rats (fasted overnight before administration) at a dose of 5 mg/kg. The experimental conditions are detailed in Table 20. Blood was collected from the jugular or tail vein at 0.0833, 0.25, 0.5, 1.0, 2.0, 4.0, 6.0, 8.0 and 24 hrs after oral administration. The blood was fed to an anticoagulation tube supplemented with EDTA-K2, and centrifuged to separate plasma. The plasma concentrations were determined by LC-MS/MS, and the relevant pharmacokinetic parameters were calculated by the linear logarithmic trapezoid method of non-compartmental model using WinNonlm™ Version 6.3 (Pharsight, Mountain View, CA) pharmacokinetic software.

SNU-16 xenograft model = assay: In vivo pharmacodynamic evaluation, SNU-16 xenograft model; design: species or system nude mice; conditions: for TGI % (the last dose is given on day 30): SNU-16 xenograft model, nude mice
Method: SNU-16 cells in logarithmic growth phase were harvested, counted and resuspended in 50% PBS (pH 7.4, 0.01 M) and 50% Matrigel. The cell concentration was adjusted to 4×10^7 cells/mL, and the cells were then placed in an ice box. The cell suspension was aspirated with a 1 mL syringe and injected subcutaneously into the anterior right axilla of nude mice, at a dose of 200 μL/animal (8×10^6 cells/animal) to establish a SNU-16 xenograft model. The animal status was observed periodically, and the tumor size was measured using an electronic vernier caliper. The data was entered into an Excel spreadsheet, and the tumor volume was calculated, to monitor the tumor growth. When the tumor volume reached 100-300 mm^3, 35 tumor-bearing mice (with a tumor volume of 112-182 mm^3) in good health status having similar tumor volume were selected and randomized into 5 groups (n=7). The average tumor volume in each group was about 150 mm^3. After the test was started, the tumor size was measured twice a week, the tumor volume was calculated, and the body weight of the animal was weighed and recorded.
Analysis of tumor growth inhibition (TGI): The evolutionary growth potential of tumors was evaluated by the relationship between the tumor volume and time. The long axis (L) and short axis (W) of subcutaneous tumor were measured twice a week by a caliper, and the tumor volume (TV) was calculated by the formula ((L×W^2)/2). TGI was calculated from the difference between the median tumor volume of the mice in the solvent group and the median tumor volume of the mice in the drug group, and expressed as a percentage relative to the median tumor volume in the solvent control group.
The test data was calculated and statistically processed by SPSS19.0. Unless otherwise specified, the data were expressed as mean±standard error (Mean±SE), and the comparison between the two groups was analyzed by T-test. […] The solvent 30% PEG400 (containing 70% deionized water, v/v) alone was used as the negative control.

[2] = Solid stability test (high temperature, high humidity, light, accelerated); type: physicochemical
Method: High Performance Liquid Chromatography (HPLC) of the Present Invention [table] Experimental method: 12 parallel samples of the crystal form A of the compound of formula (II) were weighed in an amount of about 1 g each. Each sample was fed to a double-layer LDPE bag, and each layer of the LDPE bag was tied and sealed. […] The photostability experiment was carried out as described in the Chinese Pharmacopoeia and ICH Q1B. The samples were irradiated with visible light and UV light.

[3] = intravenous, 0.5 mg/kg, male SD rats
[4] = oral (gavage), 5 mg/kg, male SD rats
[5] = rat, plasma, PO, 5 mg/kg, male SD rats (table title says mice)
[6] = Acceleration experiment (40° C./relative humidity 75%, open), 1 month
[7] = Acceleration experiment (40° C./relative humidity 75%, open), 2 month
[8] = Acceleration experiment (40° C./relative humidity 75%, open), 3 month
[9] = High humidity (room temperature/relative humidity 92.5%, open), Day 5
[10] = High humidity (room temperature/relative humidity 92.5%, open), Day 10
[11] = High humidity (room temperature/relative humidity 92.5%, open), Day 30
[12] = High temperature (60° C., open), Day 5
[13] = High temperature (60° C., open), Day 10
[14] = High temperature (60° C., open), Day 30
[15] = Light irradiation (1.2 × 10^6 Lux·hr / near ultraviolet 200 w·hr/m^2, open 10 days), light irradiation sample
[16] = Light irradiation test, sample in the dark

COc1cc(OC)c(F)c(Cc2c[nH]c3ncc(-c4cnn(CCO)c4)cc23)c1F.Cl
Drug exposure [1, 3]: high level
Volume of distribution [1, 3]: high
clearance [1, 3]: moderately low
half-life [1, 3]: moderate
Oral exposure [1, 4]: high level
Oral exposure level compared with other salt crystal forms [1, 4]: higher than that of the crystal form G of the compound of Formula (III), and the crystal form J of the compound of Formula (III)
Peak time [1, 4]: rapid
AUC(0-t) ([1]; rat, plasma, IV, 0.5 mg/kg, male SD rats (table title says mice)): 1.01 µM·h
clearance ([1]; rat, plasma, IV, 0.5 mg/kg, male SD rats (table title says mice), read-out: Cl): 18.4 mL/min/kg
half-life ([1]; rat, plasma, IV, 0.5 mg/kg, male SD rats (table title says mice), read-out: T1/2 (converted)): 79.2 min
Vd ([1]; rat, plasma, IV, 0.5 mg/kg, male SD rats (table title says mice), read-out: Vdss): 1.87 L/kg
AUC(0-t) [1, 5]: 5.18 µM·h
Cmax [1, 5]: 1960 nM
Tmax [1, 5]: 30 min
TGI % (the last dose is given on day 30) (SNU-16 xenograft model; 2.5 mg/kg BID): 72%
TGI % (the last dose is given on day 30) (SNU-16 xenograft model; 5.0 mg/kg BID): 86%
Tumor inhibitory effect (SNU-16 xenograft model; tumor model SNU-16, nude mice): excellent tumor inhibitory effect
Content (%) [2, 6]: 99.7%
Total impurity (%) [2, 6]: 0.67%
Content (%) [2, 7]: 99.7%
Total impurity (%) [2, 7]: 0.69%
Content (%) [2, 8]: 99.9%
Total impurity (%) [2, 8]: 0.68%
Content (%) ([2]; Day 0): 99.8%
Total impurity (%) ([2]; Day 0): 0.71%
Content (%) [2, 9]: 99.6%
Total impurity (%) [2, 9]: 0.75%
Content (%) [2, 10]: 99.8%
Total impurity (%) [2, 10]: 0.71%
Content (%) [2, 11]: 98.9%
Total impurity (%) [2, 11]: 0.65%
Content (%) [2, 12]: 99.6%
Total impurity (%) [2, 12]: 0.78%
Content (%) [2, 13]: 99.9%
Total impurity (%) [2, 13]: 0.76%
Content (%) [2, 14]: 98.5%
Total impurity (%) [2, 14]: 0.80%
Content (%) [2, 15]: 99.8%
Total impurity (%) [2, 15]: 0.76%
Content (%) [2, 16]: 99.8%
Total impurity (%) [2, 16]: 0.79%
Solid stability in words ([2]; accelerated conditions and affecting factors): very stable, and no obvious unknown impurities are formed
